Here are results for 24 compounds from patent publication US10723699B2 (Hyundai Pharm Co., Ltd., priority 2015, dated 2020).

In the experiment the target is T1, G protein-coupled receptor 119 (GPR-119) (Mesocricetus auratus, UniProt A0A1U8CD06).
T1 construct: hamster-derived β-cells containing G protein-coupled receptor 119 (GPR-119), HIT-T15 cells; host or cells: HIT-T15 (hamster pancreatic β-cells)
T1 sequence (A0A1U8CD06 1-334): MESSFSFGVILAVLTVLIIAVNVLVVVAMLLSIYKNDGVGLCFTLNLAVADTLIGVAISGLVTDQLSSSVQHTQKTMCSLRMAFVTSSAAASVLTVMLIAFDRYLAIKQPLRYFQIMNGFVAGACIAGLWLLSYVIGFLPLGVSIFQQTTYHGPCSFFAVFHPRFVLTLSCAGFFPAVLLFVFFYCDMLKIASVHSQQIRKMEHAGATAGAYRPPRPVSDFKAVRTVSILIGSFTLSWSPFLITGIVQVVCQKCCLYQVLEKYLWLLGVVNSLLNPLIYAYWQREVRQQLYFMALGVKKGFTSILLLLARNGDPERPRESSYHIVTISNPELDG
Briefly: cAMP activity in HIT-T15 cells (cAMP dynamic kit, FRET). Format: cell-based, hamster. Here is the method:
To check whether the cyclohexene derivatives according to the present invention activate cyclic adenosine monophosphate (cAMP), experiments were carried out, as follows.
The HIT-T15 cells were plated on a 96-well plate at 60,000 cells per well. On the next day of plating, the cells were treated with a varying concentration of each of the example compounds according to the present invention, and incubated at 37° C. for an hour. In this case, each of the treated compounds was used at six concentrations, ranging from 0.0032 to 10 μM, to treat the cells.
The cyclic adenosine monophosphate (cAMP) activity was measured according to the manufacturer's instruction using a cAMP dynamic kit commercially available from Cis Bio Inc. (Bedford, Mass.). The cells were lysed, and a level of cAMP was determined by a competitive immunoassay using D2-labeled cAMP and a cryptate-labeled anti-cAMP antibody. Fluorescence was read in Flex Station (Molecular Devices). […] Unlabeled cAMP in the cell lysate competed with the D2-labeled cAMP against the cryptate-labeled antibody. Since a decrease in the measured intensity of the FRET signals represents a level of cAMP in the cells, the cAMP activities of the compounds are calculated as a change in FRET signals by adjusting an amount of dimethyl sulfoxide (DMSO).

Where [1] appears, read: 1 hour at 37° C., six concentrations 0.0032 to 10 μM, read-out: EC50.

Where two headings read alike, the source gives them in different places.

Regarding `CCN1CCN(C(=O)C2CC=C(c3ccc(OCC4CCN(c5nc(C(C)C)no5)CC4)c(F)c3)CC2)CC1` (stereo not shown) [Example 346, (4-ethylpiperazin-1-yl)(4-(3-fluoro-4-((1-(3-isopropyl-1,2,4-oxadiazol-5-yl)piperidin-4-yl)methoxy)phenyl)cyclohex-3-enyl)methanone], under setting [1], the concentration giving a half-maximal response (EC50) was determined as 100 nM.
Turning to `CCc1cnc(N2CCC(COc3ccc(C4=CCC(C(=O)N5CCC(F)(F)C5)CC4)c(F)c3)CC2)nc1` (stereo not shown) [Example 454, (3,3-difluoropyrrolidin-1-yl)(4-(4-((1-(5-ethylpyrimidin-2-yl)piperidin-4-yl)methoxy)-2-fluorophenyl)cyclohex-3-enyl)methanone], the half-maximal effective concentration (EC50) is 15 nM under setting [1] and ≤ 50 nM (Table 2, read-out: EC50 value).
Turning to `O=C(NCCO)C1CC=C(c2ccc(OCC3CCN(c4ncc(Br)cn4)CC3)cc2)CC1` (stereo not shown) [Example 357, 4-(4-((1-(5-bromopyrimidin-2-yl)piperidin-4-yl)methoxy)phenyl)-N-(2-hydroxyethyl)cyclohex-3-enecarboxamide], the EC50 under setting [1] was 150 nM.
Regarding `CCc1cnc(N2CCC(COc3ccc(C4=CCC(C(=O)NCC(C)(C)CO)CC4)cc3F)CC2)nc1` (stereo not shown) [Example 378, 4-(4-((1-(5-ethylpyrimidin-2-yl)piperidin-4-yl)methoxy)-3-fluorophenyl)-N-(3-hydroxy-2,2-dimethylpropyl)cyclohex-3-enecarboxamide], the EC50 reads like this: under setting [1], 20 nM; (Table 2, read-out: EC50 value) ≤ 50 nM.
In the case of `CC(C)(C)OC(=O)N1CCC(COc2ccc(C3=CCC(C(=O)N4CCCCC4)CC3)nc2)CC1` (stereo not shown) [Example 311, tert-butyl 4-((6-(4-(piperidine-1-carbonyl)cyclohex-1-enyl)pyridin-3-yloxy)methyl)piperidine-1-carboxylate], under setting [1], the EC50 was determined as 79 nM.
Take `CC(C)(C)OC(=O)N1CCC(COc2ccc(C3=CCC(C(=O)N4CCC(O)CC4)CC3)nc2)CC1` (stereo not shown) [Example 310, tert-butyl 4-((6-(4-(4-hydroxypiperidine-1-carbonyl)cyclohex-1-enyl)pyridin-3-yloxy)methyl)piperidine-1-carboxylate]: the EC50 by setting is: under setting [1], 33 nM; (Table 2, read-out: EC50 value) ≤ 50 nM.
Consider `O=C(C1CC=C(c2ccc(OCC3CCN(C(=O)C4(C(F)(F)F)CC4)CC3)c(F)c2)CC1)N1CCCC1` (stereo not shown) [Example 421, (4-(3-fluoro-4-((1-(1-(trifluoromethyl)cyclopropanecarbonyl)piperidin-4-yl)methoxy)phenyl)cyclohex-3-enyl)(pyrrolidin-1-yl)methanone], for which the EC50 under setting [1] came out at 53 nM.
Take `CON=C1CCN(C(=O)C2CC=C(c3ccc(OCC4CCN(c5nc(C(C)C)no5)CC4)cc3)CC2)CC1` (stereo not shown) [Example 410, (4-(4-((1-(3-isopropyl-1,2,4-oxadiazol-5-yl)piperidin-4-yl)methoxy)phenyl)cyclohex-3-enyl)(4-(methoxyimino)piperidin-1-yl)methanone]: the EC50 under setting [1] was found to be 14 nM.
`CCc1cnc(N2CCC(COc3ccc(C4=CCC(C(=O)N5CCC(CCO)CC5)CC4)cc3)CC2)nc1` (stereo not shown) [Example 173, (4-(4-((1-(5-ethylpyrimidin-2-yl)piperidin-4-yl)methoxy)phenyl)cyclohex-3-enyl)(4-(2-hydroxyethyl)piperidin-1-yl)methanone]: the EC50 (Table 2, read-out: EC50 value) is ≤ 50 nM.
Consider `CCc1cnc(N2CCC(COc3ccc(C4=CCC(C(=O)N5CCC(C(N)=O)CC5)CC4)cc3F)CC2)nc1` (stereo not shown) [Example 324, 1-(4-(4-((1-(5-ethylpyrimidin-2-yl)piperidin-4-yl)methoxy)-3-fluorophenyl)cyclohex-3-enecarbonyl)piperidine-4-carboxamide], for which the EC50 was 27 nM under setting [1] and ≤ 50 nM (Table 2, read-out: EC50 value).
`CCc1cnc(N2CCC(COc3ccc(C4=CCC(C(=O)N5CCN(CCO)CC5)CC4)cc3)CC2)nc1` (stereo not shown) [Example 172, (4-(4-((1-(5-ethylpyrimidin-2-yl)piperidin-4-yl)methoxy)phenyl)cyclohex-3-enyl)(4-(2-hydroxyethyl)piperazin-1-yl)methanone]: the EC50 (Table 2, read-out: EC50 value) was ≤ 50 nM.
For `CC(C)c1noc(N2CCC(COc3ccc(C4=CCC(C(=O)N5CC(O)C5)CC4)cc3F)CC2)n1` (stereo not shown) [Example 334, (4-(3-fluoro-4-((1-(3-isopropyl-1,2,4-oxadiazol-5-yl)piperidin-4-yl)methoxy)phenyl)cyclohex-3-enyl)(3-hydroxyazetidin-1-yl)methanone], the half-maximal effective concentration (EC50) under setting [1] was 52 nM.
For `CCc1cnc(N2CCC(COc3ccc(C4=CCC(C(=O)N5CCC(F)(F)C5)CC4)c(F)c3)CC2)nc1` (single isomer, unassigned; (+)) [Example 462, (+)-(3,3-difluoropyrrolidin-1-yl)(4-(4-((1-(5-ethylpyrimidin-2-yl)piperidin-4-yl)methoxy)-2-fluorophenyl)cyclohex-3-enyl)methanone], the EC50 was 14 nM under setting [1] and ≤ 50 nM (Table 2, read-out: EC50 value).
As for `CCc1cnc(N2CCC(COc3ccc(C4=CCC(C(=O)N5CCOCC5)CC4)cc3C#N)CC2)nc1` (stereo not shown) [Example 388, 2-((1-(5-ethylpyrimidin-2-yl)piperidin-4-yl)methoxy)-5-(4-(morpholine-4-carbonyl)cyclohex-1-enyl)benzonitrile], the EC50 under setting [1] was determined as 51 nM.
With `CCC(F)(F)C(=O)N1CCC(COc2ccc(C3=CCC(C(=O)N4CCOCC4)CC3)cc2F)CC1` (stereo not shown) [Example 439, 2,2-difluoro-1-(4-((2-fluoro-4-(4-(morpholine-4-carbonyl)cyclohex-1-enyl)phenoxy)methyl)piperidin-1-yl)butan-1-one], the EC50 was 5.9 nM under setting [1] and ≤ 50 nM (Table 2, read-out: EC50 value).
The like results for `CCc1cnc(N2CCC(COc3ccc(C4=CCC(C(=O)N5CCC(O)CC5)CC4)cc3F)CC2)nc1` (stereo not shown) [Example 294, (4-(4-((1-(5-ethylpyrimidin-2-yl)piperidin-4-yl)methoxy)-3-fluorophenyl)cyclohex-3-enyl)(4-hydroxypiperidin-1-yl)methanone] were, in that order, 23 nM and ≤ 50 nM.
On the same counts, the results for `CCc1cnc(N2CCC(COc3ccc(C4=CCC(C(=O)N5CCCC5)CC4)cc3F)CC2)nc1` (single isomer, unassigned; (-)) [Example 429, (−)-(4-(4-((1-(5-ethylpyrimidin-2-yl)piperidin-4-yl)methoxy)-3-fluorophenyl)cyclohex-3-enyl)(pyrrolidin-1-yl)methanone] are 21 nM and ≤ 50 nM.
On the same counts, the results for `CC(C)c1noc(N2CCC(COc3ccc(C4=CCC(C(=O)N5CCC(=NO)CC5)CC4)cc3F)CC2)n1` (stereo not shown) [Example 411, (4-(3-fluoro-4-((1-(3-isopropyl-1,2,4-oxadiazol-5-yl)piperidin-4-yl)methoxy)phenyl)cyclohex-3-enyl)(4-(hydroxyimino)piperidin-1-yl)methanone] are 15 nM and ≤ 50 nM.
`O=C(OC(C(F)(F)F)C(F)(F)F)N1CCC(COc2ccc(C3=CCC(C(=O)N4CCCC4)CC3)cc2F)CC1` (stereo not shown) [Example 405, 1,1,1,3,3,3-hexafluoropropan-2-yl 4-((2-fluoro-4-(4-(pyrrolidine-1-carbonyl)cyclohex-1-enyl)phenoxy)methyl)piperidine-1-carboxylate]: the EC50 under setting [1] stood at 59 nM.
Consider `CCc1cnc(N2CCC(COc3ccc(C4=CCC(C(=O)N5CCOCC5)CC4)cc3C(F)(F)F)CC2)nc1` (stereo not shown) [Example 400, (4-(4-((1-(5-ethylpyrimidin-2-yl)piperidin-4-yl)methoxy)-3-(trifluoromethyl)phenyl)cyclohex-3-enyl)(morpholino)methanone], for which the EC50 under setting [1] stood at 140 nM.
In the case of `CC(C)c1noc(N2CCC(COc3ccc(C4=CCC(C(=O)N5CCC(CCO)CC5)CC4)cc3F)CC2)n1` (stereo not shown) [Example 335, (4-(3-fluoro-4-((1-(3-isopropyl-1,2,4-oxadiazol-5-yl)piperidin-4-yl)methoxy)phenyl)cyclohex-3-enyl)(4-(2-hydroxyethyl)piperidin-1-yl)methanone], the EC50 runs as follows: under setting [1], 18 nM; (Table 2, read-out: EC50 value) ≤ 50 nM.
As to `CCc1cnc(N2CCC(COc3ccc(C4=CCC(C(=O)N5CCCC5)CC4)cc3C)CC2)nc1` (stereo not shown) [Example 416, (4-(4-((1-(5-ethylpyrimidin-2-yl)piperidin-4-yl)methoxy)-3-methylphenyl)cyclohex-3-enyl)(pyrrolidin-1-yl)methanone], the concentration for a half-maximal effect (EC50) under setting [1] is 75 nM.
Still for that read-out and setting: the figure for `CCc1cnc(N2CCC(COc3ccc(C4=CCC(C(=O)N5CC[C@H](F)C5)CC4)cc3)CC2)nc1` (single isomer, unassigned; (-)) [Example 458] is 12 nM; for `CC(C)c1noc(N2CCC(COc3ccc(C4=CCC(C(=O)N5CCC(N6CCCC6)CC5)CC4)cc3F)CC2)n1` (stereo not shown) [Example 336, (4-(3-fluoro-4-((1-(3-isopropyl-1,2,4-oxadiazol-5-yl)piperidin-4-yl)methoxy)phenyl)cyclohex-3-enyl)(4-(pyrrolidin-1-yl)piperidin-1-yl)methanone] it is 180 nM.
